Data taken from patent US6608174B1, “Radiolabeled vasoactive intestinal peptide analogs for diagnosis and radiotherapy” (Dabur Research Foundation, priority 2000, dated 2003).
Where two headings read alike, the source gives them in different places. Square brackets hold non-standard residues; d marks the D form. Ends that are not written are not given here. dPhe(4-Cl) = N[C@H](Cc1ccc(Cl)cc1)C(=O)O; Aib = CC(C)(N)C(=O)O

Tests used:
VIP receptors = experiment: Receptor binding and competition assay with 125I labeled peptide (SEQ ID NO:2) on human tumor cell lines; settings: for Kd: 4-8° C.
Experimental: In the practice of these methods, the peptide was radioiodinated using the iodogen method. Briefly, 5 μg of the peptide in 10 μl of 50 mM PBS (pH 7.5), an appropriate amount of the radioisotope and 50 μg-100 μg iodogen were incubated at room temperature for 15-30 min with occasional mixing. Radioiodinated peptide was purified from unincorporated radioactive iodine by purification on a Sep Pak C18 cartridge, essentially following the same procedure as described for technetium labeling. Receptor binding and competition assays were performed at 4-8° C. Briefly, 50,000 cells were plated per well of a 24 well plate and allowed to adhere overnight. Before the assay, the cells were washed twice with ice cold binding buffer (25 mM HEPES, 10 mM MgCl2 and 1% BSA in RPMI 1640 medium). The cells were incubated for 2-3 hrs with an appropriate concentration (0.1-10 nM) of the ^125I labeled peptide (SEQ ID NO:2), in the presence and absence of the cold ligand, which is the uniodinated form of the same peptide (1 nM-10 μM). After incubation, the cells were washed thrice with the binding buffer to remove the unbound peptide. The cells were lysed and counts were measured in a Gamma counter. From a comparison of the extent of binding in the presence or absence of the unlabeled peptide (SEQ ID NO:2), the dissociation constant (Kd) (TABLE I) and maximal binding (Bmax) (TABLE II) were calculated for the peptide. […] These characteristics are similar to what has been previously reported for VIP receptors. The following tumor cell lines were assayed using the above described binding competition assay: HT29 (human colorectal adenocarcinoma); PTC (human primary tumor cells adenocarcinoma); KB (human squamous cell carcinoma); 4451 (human squamous cell carcinoma); L132 (human lung carcinoma); A549 (human lung carcinoma); HBL100 (human breast carcinoma) and PA1 (human ovarian carcinoma). Cells were grown in RPMI 1640 supplemented with 10% fetal calf serum, glutamine and antibiotics using standard cell culture techniques (see Animal Cell Culture: A Practical Approach, Freshney, ed, IRL press: Oxford, UK, 1992).

[1] = target: high affinity (nM range), low surface expression receptor on human tumor cells (VIP receptor) (human); experiment: maximal binding, 125I-SEQ ID NO:2 on HT29 cells
[2] = target: low affinity (µM range), high surface expression receptor on human tumor cells (VIP receptor) (human); experiment: maximal binding, 125I-SEQ ID NO:2 on HT29 cells
[3] = target: high affinity (nM range), low surface expression receptor on human tumor cells (VIP receptor) (human); experiment: maximal binding, 125I-SEQ ID NO:2 on PA1 cells (printed PAI)
[4] = target: low affinity (µM range), high surface expression receptor on human tumor cells (VIP receptor) (human); experiment: as above
[5] = target: VIP receptors on human tumor cell lines (human); experiment: displacement of 125I labeled VIP (10-28) fragment on PTC cells
[6] = target: high affinity (nM range), low surface expression receptor on human tumor cells (VIP receptor) (human); experiment: homologous radioligand competition, 125I-SEQ ID NO:2 on A549 cells
[7] = target: low affinity (µM range), high surface expression receptor on human tumor cells (VIP receptor) (human); experiment: as above
[8] = target: high affinity (nM range), low surface expression receptor on human tumor cells (VIP receptor) (human); experiment: homologous radioligand competition, 125I-SEQ ID NO:2 on HBL 100 cells
[9] = target: low affinity (µM range), high surface expression receptor on human tumor cells (VIP receptor) (human); experiment: as above

For “His-Ser-Asp-Aib-Val-4-Cl-D-Phe-Thr-Asp-Asn-Tyr-Thr-Arg-Leu-Arg-Lys-Gln-Leu-Ala-Val-Lys-Lys-Tyr-Leu-Asn-Ser-Ile-Leu-Asn-NH2 (HSD[Aib]V[dPhe(4-Cl)]TDNYTRLRKQLAVKKYLNSILN-NH2; N-terminus assumed; SMILES CC[C@H](C)[C@H](NC(=O)[C@H](CO)NC(=O)[C@H](CC(N)=O)NC(=O)[C@H](CC(C)C)NC(=O)[C@H](Cc1ccc(O)cc1)NC(=O)[C@H](CCCCN)NC(=O)[C@H](CCCCN)NC(=O)[C@@H](NC(=O)[C@H](C)NC(=O)[C@H](CC(C)C)NC(=O)[C@H](CCC(N)=O)NC(=O)[C@H](CCCCN)NC(=O)[C@H](CCCNC(=N)N)NC(=O)[C@H](CC(C)C)NC(=O)[C@H](CCCNC(=N)N)NC(=O)[C@@H](NC(=O)[C@H](Cc1ccc(O)cc1)NC(=O)[C@H](CC(N)=O)NC(=O)[C@H](CC(=O)O)NC(=O)[C@@H](NC(=O)[C@@H](Cc1ccc(Cl)cc1)NC(=O)[C@@H](NC(=O)C(C)(C)NC(=O)[C@H](CC(=O)O)NC(=O)[C@H](CO)NC(=O)[C@@H](N)Cc1c[nH]cn1)C(C)C)[C@@H](C)O)[C@@H](C)O)C(C)C)C(=O)N[C@@H](CC(C)C)C(=O)N[C@@H](CC(N)=O)C(N)=O) [SEQ ID NO:2, VIP receptor antagonist, preferred peptide (Xxx = Aib)]”, the “Bmax1 (maximal binding)” value (VIP receptors; 4451 cells, high affinity receptor) was 579 pM, the Kd (VIP receptors; 4451 cells, high affinity receptor, read-out: Kd1) was 4.48 nM and the “Bmax2 (maximal binding)” value (VIP receptors; 4451 cells, low affinity receptor) was 51 nM. The Kd (VIP receptors; 4451 cells, low affinity receptor, read-out: Kd2) was 1910 nM, the “Bmax1 (maximal binding)” value (VIP receptors; A549 cells, high affinity receptor) was 540 pM and the Kd (VIP receptors; A549 cells, high affinity receptor, read-out: Kd1) was 2.09 nM. For the same molecule, the “Bmax2 (maximal binding)” value (VIP receptors; A549 cells, low affinity receptor) was 48.3 nM, the Kd (VIP receptors; A549 cells, low affinity receptor, read-out: Kd2) was 1530 nM and the “Bmax1 (maximal binding)” value (VIP receptors; HBL 100 cells, high affinity receptor) was 697 pM. The Kd (VIP receptors; HBL 100 cells, high affinity receptor, read-out: Kd1) was 2.13 nM, the “Bmax2 (maximal binding)” value (VIP receptors; HBL 100 cells, low affinity receptor) was 69.1 nM and the Kd (VIP receptors; HBL 100 cells, low affinity receptor, read-out: Kd2) was 1600 nM. For the same molecule, the “Bmax1 (maximal binding)” value (VIP receptors; HT29 cells, high affinity receptor) was 367 pM, the Kd (VIP receptors; HT29 cells, high affinity receptor, read-out: Kd1) was 3.8 nM and the “Bmax2 (maximal binding)” value (VIP receptors; HT29 cells, low affinity receptor) was 67.2 nM. The Kd (VIP receptors; HT29 cells, low affinity receptor, read-out: Kd2) was 1370 nM, the “Bmax1 (maximal binding)” value (VIP receptors; KB cells, high affinity receptor) was 602 pM and the Kd (VIP receptors; KB cells, high affinity receptor, read-out: Kd1) was 4.2 nM. For the same molecule, the “Bmax2 (maximal binding)” value (VIP receptors; KB cells, low affinity receptor) was 42.9 nM, the Kd (VIP receptors; KB cells, low affinity receptor, read-out: Kd2) was 1840 nM and the “Bmax1 (maximal binding)” value (VIP receptors; L132 cells, high affinity receptor) was 306 pM. The Kd (VIP receptors; L132 cells, high affinity receptor, read-out: Kd1) was 2.6 nM, the “Bmax2 (maximal binding)” value (VIP receptors; L132 cells, low affinity receptor) was 45.8 nM and the Kd (VIP receptors; L132 cells, low affinity receptor, read-out: Kd2) was 1030 nM. For the same molecule, the Kd (VIP receptors; PA1 cells, high affinity receptor, read-out: Kd1) was 5.6 nM, the Kd (VIP receptors; PA1 cells, low affinity receptor, read-out: Kd2) was 1890 nM and the “Bmax1 (maximal binding)” value (VIP receptors; PAI cells, high affinity receptor) was 529 pM. The “Bmax2 (maximal binding)” value (VIP receptors; PAI cells, low affinity receptor) was 47.7 nM, the “Bmax1 (maximal binding)” value (VIP receptors; PTC cells, high affinity receptor) was 830 pM and the Kd (VIP receptors; PTC cells, high affinity receptor, read-out: Kd1) was 1.77 nM. The “Bmax2 (maximal binding)” value (VIP receptors; PTC cells, low affinity receptor) was 96.6 nM, the Kd (VIP receptors; PTC cells, low affinity receptor, read-out: Kd2) was 1180 nM and the “kinds of receptors bound on the cell surface” value (VIP receptors; one high affinity (nM range), low expression, one low affinity, high expression) was “bound to two kinds of receptors on the cell surface”.

HSD[Aib]V[dPhe(4-Cl)]TDNYTRLRKQLAVKKYLNSILN-NH2 (also: 125I-labelled form (iodogen) used as tracer) showed a Bmax1 [1] of 367 pM, a Bmax2 [2] of 67.2 nM and a Bmax1 [3] of 529 pM. It also gave a Bmax2 [4] of 47.7 nM, an IC50 [5] of 0.132 nM and a Kd [6] of 2.09 nM. For the same molecule, the Kd [7] was 1530 nM, the Kd [8] was 2.13 nM and the Kd [9] was 1600 nM.
